Test [1] deals with Hh signaling pathway (Gli1 mRNA) in C3H10T1/2 cells. The experiment in a line: Gli1 mRNA down-regulation (qPCR) in OHC-stimulated C3H10T1/2 cells. The class given is cell-based, mouse. Conditions: Mus musculus. As for the experimental part:
(§1) The VD3 analogues were initially assessed for their ability to inhibit the Hh signaling pathway by evaluating the effects on endogenous Gli1 mRNA levels at a single concentration (5 μM) co-administration of oxysterols (OHCs; 20(S)-hydroxycholesterol, 22(S)-hydroxycholesterol at 5 μM each) in C3H10T1/2 cells, an Hh-dependent mouse embryonic fibroblast (MEF) cell line. […] VD3 derivatives may retain some VDR agonistic activity, thereby compromising the selectivity of these compounds as Hh inhibitors. The selectivity profile of the analogues for Hh inhibition, compared to typical VDR activation, was assessed by measuring the ability to up-regulate Cyp24a1 mRNA levels in the same cellular system and by evaluating their binding to VDR using a fluorescence polarization-based competition assay (Table 1).
(§2) Mouse embryonic fibroblast cell line (C3H10T1/2, wild-type, VDR^−/−, SuFu^−/−), mouse keratinocyte cell line (ASZ001), and human embryonic kidney cell line (HEK293T) were purchased from China Center for Type Culture Collection (CCTCC; Wuhan, Hubei, China) and cultured under standard protocols. […] Therefore, they can be used to assess the inhibitory strength of the Hh signaling and the selectivity of the VDR signaling. VDR^−/− and SuFu^−/− C3H10T1/2 cells were used to study compounds selectivity for Hh and VDR signaling. If compounds regulate Hh signaling independently of VDR, their ability to down-regulate Gli1 mRNA expression should be abolished in SuFu^−/− C3H10T1/2 cells. […] The loss of Ptch in ASZ001 cells […], so down-regulating Gli1 reflects direct Smo inhibition by the compound. Comparing results from ASZ001 and C3H10T1/2 cells highlights the compound’s inhibition of the Hh signaling pathway.
(§3) RNA isolation in C3H10T1/2 cells was performed in 24-well plates (50,000 cells plated; TRIZOL Reagent); in ASZ001, cells were done in 35 mm dishes (300,000 cells plated; TRIZOL Reagent). cDNA synthesis was performed utilizing the SweScript All-in-One RT SuperMix Kit (Servicebio, Wuhan, China) per the manufacturer’s instructions on a BioRad S1000 Thermal Cycler (Hercules, CA, USA). qPCR (Hh signaling pathway and VDR) analysis of target genes was performed on Step OnePlus (ABI) using the Taqman Gene Expression Assays: mouse ActB (Mm00607939_s1), mouse GLI1 (Mm00494645_ml), mouse PTCH1(Mm00436026_m1), and mouse CYP24A1 (Mm00487244_ml). Relative gene expression levels were computed via the ΔΔCt method. ActinB mRNA expression levels of all samples were normalized to DMSO control ActinB mRNA levels (vehicle; set at 1.00). […] The mRNA expression levels from drug-treated samples were compared to OHCs levels (Gli1, PTCH) and DMSO control (Cyp24A1).

Test [2] relates to VDR signaling (Cyp24A1 mRNA) in C3H10T1/2 cells. The experiment in a line: Cyp24A1 mRNA up-regulation (qPCR) in C3H10T1/2 cells. The class given is cell-based, mouse. As to conditions: Mus musculus, C3H 10T1/2, 5 μM with OHCs 5 μM, 24 h, relative to DMSO (set to 1.0). As for the experimental part:
as §1, §2, §3
In general terms: Real-time PCR tracks product formation cycle by cycle.

In a further test the target is T1, recombinant VDR (Homo sapiens, UniProt P11473).
T1 construct: purchased Thermo Fisher Scientific
T1 sequence (P11473 1-427): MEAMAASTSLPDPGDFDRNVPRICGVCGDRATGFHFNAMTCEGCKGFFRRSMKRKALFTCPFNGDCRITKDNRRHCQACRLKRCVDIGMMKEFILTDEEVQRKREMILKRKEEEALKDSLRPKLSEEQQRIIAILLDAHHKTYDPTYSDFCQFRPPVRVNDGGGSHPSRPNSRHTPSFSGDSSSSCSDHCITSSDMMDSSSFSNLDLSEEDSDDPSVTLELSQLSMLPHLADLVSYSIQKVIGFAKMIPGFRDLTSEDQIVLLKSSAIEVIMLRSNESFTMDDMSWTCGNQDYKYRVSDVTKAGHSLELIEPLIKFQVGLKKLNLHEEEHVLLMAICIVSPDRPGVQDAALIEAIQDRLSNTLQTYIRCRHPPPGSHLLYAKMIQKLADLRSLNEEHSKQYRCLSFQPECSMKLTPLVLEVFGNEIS
Briefly: VDR binding, fluorescence polarization-based competition assay (PolarScreen VDR Competitor Assay Red). Conditions: compounds evaluated at 100 μM. As for the experimental part:
as §1
VDR binding assay was performed using a PolarScreen VDR Competitor Assay Red kit (Thermo Fisher Scientific, Carlsbad, CA, USA) per the manufacturer’s instructions. Compounds were evaluated at 100 μM in 2.5% final DMSO in triplicate. Calcitriol is utilized as a positive control for VDR binding.
A general note: Polarisation of emitted light reports the rotation of a fluorescent probe.

In test [3] the test system is Hh signaling pathway (Ptch mRNA) in C3H10T1/2 cells. Briefly: Ptch mRNA down-regulation (qPCR) in C3H10T1/2 cells. The class given is cell-based. Conditions: Mus musculus, C3H 10T1/2; C3H10T1/2 cells; mean ± SEM; read-out: Ptch IC50.
Description: (§4) RNA isolation in C3H10T1/2 cells was performed in 24-well plates (50,000 cells plated; TRIZOL Reagent); in ASZ001, cells were done in 35 mm dishes (300,000 cells plated; TRIZOL Reagent). cDNA synthesis was performed utilizing the SweScript All-in-One RT SuperMix Kit (Servicebio, Wuhan, China) per the manufacturer’s instructions on a BioRad S1000 Thermal Cycler (Hercules, CA, USA). qPCR (Hh signaling pathway and VDR) analysis of target genes was performed on Step OnePlus (ABI) using the Taqman Gene Expression Assays [18, 29]: mouse ActB (Mm00607939_s1), mouse GLI1 (Mm00494645_ml), mouse PTCH1(Mm00436026_m1), and mouse CYP24A1 (Mm00487244_ml). Relative gene expression levels were computed via the ΔΔCt method. ActinB mRNA expression levels of all samples were normalized to DMSO control ActinB mRNA levels (vehicle; set at 1.00). […] The mRNA expression levels from drug-treated samples were compared to OHCs levels (Gli1, PTCH) and DMSO control (Cyp24A1).
Test [4] relates to Hh signaling pathway (Gli1 mRNA) in ASZ001 cells. Briefly: Gli1 mRNA down-regulation (qPCR) in ASZ001 cells. Conditions: Mus musculus; ASZ001 cells; mean ± SEM; read-out: Gli1 IC50. Type of test: cell-based.
Description: Mouse embryonic fibroblast cell line (C3H10T1/2, wild-type, VDR^−/−, SuFu^−/−), mouse keratinocyte cell line (ASZ001), and human embryonic kidney cell line (HEK293T) were purchased from China Center for Type Culture Collection (CCTCC; Wuhan, Hubei, China) and cultured under standard protocols [16]. […] The loss of Ptch in ASZ001 cells prevents Smo inhibition, so down-regulating Gli1 reflects direct Smo inhibition by the compound.
as §4
Test [5] concerns VDR signaling (Cyp24A1 mRNA) in ASZ001 cells. The experiment in a line: Cyp24A1 mRNA expression (qPCR) in ASZ001 cells. As to conditions: Mus musculus; ASZ001 cells; 5 μM, 24 h; DMSO set to 1.0; read-out: Cyp24A1 mRNA levels relative to DMSO. Type of test: cell-based.
Description: as §4
Test [6] relates to primary Ptch-CKO MB cells. The experiment in a line: Anti-proliferation (MTS) in primary Ptch-CKO MB cells. Conditions: Mus musculus, 48 h incubation, mean ± SEM. Type of test: cell-based. As for the experimental part: Ptch-CKO MB cells, derived from a conditional Patched knockout mouse, lack Ptch-like ASZ001 cells. Consequently, the inhibitory effect of the compound on Ptch-CKO MB cells directly reflects its suppression of the canonical Hh signaling pathway. Cell viability was assessed by MTS proliferation assay kit (Promega, Madison, WI, USA) according to the manufacturer’s protocol. Culture conditions and experimental protocols to determine GI50 values in the primary murine Ptch-CKO MB cells were as previously described.

The test system of a further test is ASZ001 cells. Briefly: Anti-proliferation (MTS) in ASZ001 cells. The class given is cell-based. Conditions: Mus musculus, 48 h incubation, mean ± SEM.
The subject of test [7] is Hh signaling (Gli1 mRNA) in VDR−/− C3H10T1/2 cells. The experiment in a line: Gli1 down-regulation in VDR−/− C3H10T1/2 cells. The class given is cell-based, mouse. As to conditions: 24 h.
Description: (§5) The ability of these compounds to regulate Hh and VDR signaling was studied in VDR^−/− and SuFu^−/− C3H10T1/2 cells. If the compounds regulate Hh signaling independently of VDR, their ability to down-regulate Gli1 mRNA expression should be completely abolished in the SuFu^−/− C3H10T1/2 cells [12, 20].
(§6) RNA isolation in C3H10T1/2 cells was performed in 24-well plates (50,000 cells plated; TRIZOL Reagent); in ASZ001, cells were done in 35 mm dishes (300,000 cells plated; TRIZOL Reagent). cDNA synthesis was performed utilizing the SweScript All-in-One RT SuperMix Kit (Servicebio, Wuhan, China) per the manufacturer’s instructions on a BioRad S1000 Thermal Cycler (Hercules, CA, USA). qPCR (Hh signaling pathway and VDR) analysis of target genes was performed on Step OnePlus (ABI) using the Taqman Gene Expression Assays [18, 29]: mouse ActB (Mm00607939_s1), mouse GLI1 (Mm00494645_ml), mouse PTCH1(Mm00436026_m1), and mouse CYP24A1 (Mm00487244_ml). Relative gene expression levels were computed via the ΔΔCt method. […]
The subject of test [8] is Hh signaling (Gli1 mRNA) in SuFu−/− C3H10T1/2 cells. Briefly: Gli1 down-regulation in SuFu−/− C3H10T1/2 cells. The class given is cell-based, mouse. As to conditions: 24 h.
Description: as §5, §6
The test system of test [9] is Cyp24A1 mRNA in VDR−/− C3H10T1/2 cells. Briefly: Cyp24A1 up-regulation in VDR−/− C3H10T1/2 cells. Type of test: cell-based, mouse. Conditions: 24 h.
Description: as §5, §6
For test [10], the system named is Cyp24A1 mRNA in SuFu−/− C3H10T1/2 cells. Briefly: Cyp24A1 up-regulation in SuFu−/− C3H10T1/2 cells. As to conditions: 24 h. The class given is cell-based, mouse.
Description: as §5, §6
The next test has as its target T2, Smo protein (Homo sapiens, UniProt Q99835).
T2 construct: purchased ACRO Biosystems SMO-H52P3
Briefly: Surface plasmon resonance (SPR) binding to Smo. Conditions: 2.5, 5, 10 μM in PBS, 4 °C. The method, then: Surface plasmon resonance (SPR) was used to evaluate the binding capacity of the compounds 3j and 4i to Smo. […] To investigate the binding sites of the analogues on Smo, the ability of 3j and 4i to displace BODIPY-Cyc from HEK293T cells overexpressing full-length human Smo was evaluated. […] Smo contains two small molecule binding sites, one located in the extracellular cysteine-rich domain (CRD) and the other in the 7-transmembrane helix (7-TM) region. […] Endogenous oxidized sterols can regulate Smo activity by binding CRD [27]. These analogues, as mimetics of steroid hormones, may interact with Smo by binding to CRD.
SPR analysis was conducted as described in papers. The analyses of interactions between Smo protein (ACRO Biosystems, SMO-H52P3, Newark, DE, USA) and compounds at different concentrations (2.5, 5, 10 μM) was performed in PBS and a flow rate of 2 μL/s at 4 °C. The sensor chip surface was regenerated by injection of 0.5% SDS: Glycine-HCl (pH = 2.0) = 1:1 solution.

The target of the next test is T3, full-length human Smo (Homo sapiens, UniProt Q99835).
T3 construct: HEK293T cells overexpressing full-length human Smo was evaluated; expressed in transfected cells; host or cells: HEK293T
The experiment in a line: BODIPY-Cyc displacement (flow cytometry) in HEK293T cells overexpressing Smo. The class given is binding. As to conditions: up to 10 μM.

A further test deals with Hh signaling pathway. The experiment in a line: Anti-Hh activity in combination with vismodegib. Conditions: combined with vismodegib 100 nM. The class given is cell-based.

T3 sequence (Q99835 28-787): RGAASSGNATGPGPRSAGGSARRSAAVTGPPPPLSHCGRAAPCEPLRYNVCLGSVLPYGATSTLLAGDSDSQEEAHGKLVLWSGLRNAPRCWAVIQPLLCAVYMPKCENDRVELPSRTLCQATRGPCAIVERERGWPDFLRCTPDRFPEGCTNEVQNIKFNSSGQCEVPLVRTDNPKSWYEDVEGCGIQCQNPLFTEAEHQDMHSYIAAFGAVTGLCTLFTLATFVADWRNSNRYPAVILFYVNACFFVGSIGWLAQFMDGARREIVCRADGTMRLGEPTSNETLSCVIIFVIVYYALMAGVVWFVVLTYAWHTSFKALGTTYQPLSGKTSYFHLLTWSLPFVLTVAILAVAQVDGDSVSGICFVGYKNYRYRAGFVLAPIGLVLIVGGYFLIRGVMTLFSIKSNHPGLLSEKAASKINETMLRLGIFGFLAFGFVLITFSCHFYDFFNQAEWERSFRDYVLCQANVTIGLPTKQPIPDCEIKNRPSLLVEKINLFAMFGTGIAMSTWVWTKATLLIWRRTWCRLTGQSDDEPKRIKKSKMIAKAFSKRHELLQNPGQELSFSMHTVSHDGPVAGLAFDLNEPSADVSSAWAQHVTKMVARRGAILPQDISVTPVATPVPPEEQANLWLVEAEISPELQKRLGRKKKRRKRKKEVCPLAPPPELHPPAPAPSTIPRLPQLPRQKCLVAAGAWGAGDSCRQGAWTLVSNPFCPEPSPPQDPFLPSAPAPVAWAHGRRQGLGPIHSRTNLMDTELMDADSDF
T2 sequence (Q99835 28-787): as above
Description for full-length human Smo: For flow cytometry experiments [16, 32], HEK293T cells were transfected with Smo-Myc3, co-incubated with BODIPY Cyc and different compounds, and then incubated with anti-Myc antibody, followed by Alexa Flour-647 donkey anti-rabbit antibody. Finally, cells were analyzed for green fluorescence using flow cytometry.

With `C[C@H](COCC(C)(C)O)[C@H]1CC[C@H]2[C@@H](OC(=O)c3cc(O)cc(O)c3)CCC[C@]12C` [Compound 4i], in test [1] (C3H 10T1/2, 5 μM with OHCs 5 μM, 24 h, relative Gli1 mRNA levels compared to OHCs (set to 100%)), the mrna remaining at 5 µM is 1.7 ± 0.3%. In addition, the IC50 is 1.1 ± 0.1 µM in [1] (C3H 10T1/2, mean ± SEM); 1.9 ± 0.3 µM in [3]; 1.8 ± 0.3 µM in test [4]. Further, the fold induction at 5 µM stood at 129 ± 16.8 in test [2] and 87.4 ± 10.6 in [5]. Moreover, the “VDR Binding” value at recombinant VDR is >100 µM. Moreover, the GI50 in test [6] was 2.2 ± 0.3 µM; in the test on ASZ001 cells, 5.8 ± 0.8 µM. Also, the entries for the “Ability to inhibit Hh signaling (Gli1 down-regulation) versus wild-type cells” value in test [7] and in test [8] were “modestly reduced” and “mostly abolished”, respectively. Further, the “Ability to up-regulate Cyp24A1 versus wild-type cells” value in [9] and in test [10] was “significantly reduced” each time. Also, at Smo protein, the “SPR interaction with Smo” value was “exhibited interactions with Smo”. For the same compound, on full-length human Smo, the “Displacement of BODIPY-Cyc from Smo” value was “neither 3j nor 4i affected BODIPY-Cyc-Smo binding interactions”. Also, the “Change of IC50 value in combination with vismodegib” value in the test on Hh signaling pathway is given as “did not change the IC50 value”.

In general, IC50 refers to the concentration that gives 50% inhibition. For orientation: GI50 means the concentration giving 50% growth inhibition.
